US20240262808A1, “XANTHINE OXIDASE INHIBITOR” (JIANGSU ATOM BIOSCIENCE AND PHARMACEUTICAL CO., LTD., priority 2021, published 2024)

How the values were obtained:
Xanthine Oxidase (XO) = biological target: T1, Xanthine Oxidase (XO) (Bos taurus, UniProt P80457); test: Xanthine oxidase activity inhibition test (XO/HRP double enzyme coupling, Ampliflu Red fluorescence); assay type: biochemical; conditions: 30 min preincubation and 30 min reaction at 30° C., pH 7.5; read-out: Xanthine oxidase inhibitor activity IC50
T1 construct: purchased Sigma-Aldrich Co., LLC
T1 sequence (P80457 2-1332 limits assumed): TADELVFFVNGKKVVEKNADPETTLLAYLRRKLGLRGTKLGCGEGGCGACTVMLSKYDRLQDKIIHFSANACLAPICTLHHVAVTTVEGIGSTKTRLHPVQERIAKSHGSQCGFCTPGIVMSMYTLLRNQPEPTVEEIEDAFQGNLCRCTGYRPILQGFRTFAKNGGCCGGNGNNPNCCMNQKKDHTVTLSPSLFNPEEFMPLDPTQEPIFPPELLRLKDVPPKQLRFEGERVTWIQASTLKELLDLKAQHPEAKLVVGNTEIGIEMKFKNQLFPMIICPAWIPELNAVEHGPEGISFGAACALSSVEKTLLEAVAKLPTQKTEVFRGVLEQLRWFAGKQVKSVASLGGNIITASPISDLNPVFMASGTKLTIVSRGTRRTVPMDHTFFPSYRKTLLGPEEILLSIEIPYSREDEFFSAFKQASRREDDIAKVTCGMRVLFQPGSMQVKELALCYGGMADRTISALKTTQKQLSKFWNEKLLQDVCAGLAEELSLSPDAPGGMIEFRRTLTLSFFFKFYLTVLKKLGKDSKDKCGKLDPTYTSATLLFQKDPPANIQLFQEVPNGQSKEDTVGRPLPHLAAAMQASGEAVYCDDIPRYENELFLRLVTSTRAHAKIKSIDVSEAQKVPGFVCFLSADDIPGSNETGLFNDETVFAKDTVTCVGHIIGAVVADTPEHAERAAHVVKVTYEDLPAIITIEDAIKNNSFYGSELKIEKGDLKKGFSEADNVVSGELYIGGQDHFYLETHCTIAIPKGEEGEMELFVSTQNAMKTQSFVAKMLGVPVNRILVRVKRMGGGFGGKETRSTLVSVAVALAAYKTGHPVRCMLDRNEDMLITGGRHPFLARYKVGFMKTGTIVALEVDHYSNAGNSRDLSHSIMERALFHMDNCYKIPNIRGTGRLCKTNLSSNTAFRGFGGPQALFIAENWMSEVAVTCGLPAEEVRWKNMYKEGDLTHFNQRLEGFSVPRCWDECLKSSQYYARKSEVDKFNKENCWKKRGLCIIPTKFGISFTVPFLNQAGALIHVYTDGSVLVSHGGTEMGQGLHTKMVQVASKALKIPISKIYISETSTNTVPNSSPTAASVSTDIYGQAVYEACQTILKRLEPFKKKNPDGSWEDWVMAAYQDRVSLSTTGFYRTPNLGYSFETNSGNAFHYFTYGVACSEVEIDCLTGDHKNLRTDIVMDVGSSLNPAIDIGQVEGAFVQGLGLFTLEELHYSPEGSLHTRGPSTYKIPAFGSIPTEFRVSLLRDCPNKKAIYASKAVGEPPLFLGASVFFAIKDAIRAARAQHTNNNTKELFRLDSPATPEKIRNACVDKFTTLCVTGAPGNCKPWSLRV
Method: A double enzyme coupling reaction of Xanthine Oxidase (XO) and Horseradish Peroxidase (HRP) and their substrates was used to test the activity inhibition of xanthine oxidase. First, xanthine oxidase oxidized hypoxanthine to produce xanthine and hydrogen peroxide, and further oxidized xanthine to produce uric acid and hydrogen peroxide. […] The fluorescence intensity of resorufin was determined by fluorescence enzyme spectrometer in direct proportion to xanthine oxidase activity.
In 96-well polypropylene reaction plate, the test compound was diluted into a 200-fold concentration of solution with DMSO through 2.5-fold serial dilution, and further diluted in ultra-pure water to obtain a series of 3-fold concentration of diluted solution.
Reaction solution A: 6 mU/mL xanthine oxidase solution was prepared in 0.1M Tris-HCl (pH7.5) buffer solution.
Reaction solution B: a mixture of 0.6 U/mL horseradish peroxidase solution, 0.15 mM Ampliflu Red and 0.3 mM hypoxanthine in 0.1M Tris-HCl (pH 7.5) buffer solution. The solution was protected from light at 4° C. and was prepared when it was ready for use.
9 μL reaction solution A was mixed with 3-fold concentration serial dilution solution of 9 μL test compound in a 96-well test plate, placed on a flat plate oscillator, and mixed at 30° C. at 100 rpm for 30 min. Then 9 μL reaction solution B was added. The enzyme reaction was carried out at 30° C. for 30 minutes. The fluorescence intensity at excitation light 530 nm and emission light 590 nm was measured by a microplate reader. The fluorescence intensity of the control without xanthine oxidase was 0%, and that of the control without the test compound was 100%.

[1] = test system: rats with hyperuricemia induced by potassium oxonate; test: Treatment of hyperuricemia in rats induced by potassium oxonate, serum uric acid; assay type: in vivo, SD rat; conditions: for Uric acid 1 h: 1 h after potassium oxonate; for Uric acid 3 h: 3 h after potassium oxonate; for Uric acid 5 h: 5 h after potassium oxonate; for Uric acid 0 h: before potassium oxonate injection
Method: Compounds 15, 24 and 38 were white powder, and compound 57 was light yellow powder, which was ground with 0.5% CMC-Na before use and prepared into suspension with corresponding concentrations (0.2 and 0.4 mg/mL) for gavage.
SD rat, SPF grade, male, weighing 180-220 g, purchased from Shanghai Slake Experimental Animal Co., Ltd., production license number: SCXK (Hu) 2017-0005, quality certificate number: 20170005050604.
72 SD rats, male, weighed about 200-230 g after one week of acclimatization. […] Drugs for each group were prepared into suspension with corresponding concentration, and the administration volume was 0.5 mL/100 g.
After purchased and fed for acclimatization, the rats in each group were fasted for 12 h, and the model was established by intraperitoneal injection with potassium oxonate at the dose of 300 mg/kg, and each of the test drug groups were administrated once by gavage after model establishment. Blood samples were collected from posterior orbital venous plexus before and 1, 3 and 5 h after potassium oxonate injection, centrifugated at 3500 rpm for 10 min, and 30 μL serum was taken to determine uric acid levels at each time point.
Then in two consecutive days, rat models were established with potassium oxonate by intraperitoneal injection at a dose of 300 mg/kg every day, and each test drug group was administrated once by gavage after model establishment. On the third day of administration, the rats were fasted for 12 h, and with the same test method on the first day, blood samples were collected from the posterior orbital venous plexus before and 1, 3 and 5 h after potassium oxonate injection, centrifuged at 3500 rpm for 10 min, and 30 μL serum was taken to determine the uric acid level at each time point.
The measurement data of each experiment were expressed as (mean)±s (standard deviation). ANOVA-Dunnett T test was used to investigate the significance between groups, and P<0.05 was used as a significant index, P<0.01 was used as a very significant index.

patients with gout = conditions: cited from earlier work
[2] = 1-day administration, 1 mg/kg gavage
[3] = 1-day administration, 2 mg/kg gavage
[4] = 3-day administration, 1 mg/kg gavage
[5] = 3-day administration, 2 mg/kg gavage
[6] = 1-day administration, 1 and 2 mg/kg groups, at 1, 3 and 5 h after model establishment
[7] = 3-day administration, 1 and 2 mg/kg groups, at 1, 3 and 5 h after model establishment

IC50 (Xanthine Oxidase (XO)) [nM] | SMILES | Uric acid 1 h [1, 2] [µmol/L] | Uric acid 3 h [1, 2] [µmol/L] | Uric acid 5 h [1, 2] [µmol/L] | Uric acid 0 h [1, 2] [µmol/L] | Uric acid 1 h [1, 3] [µmol/L] | Uric acid 3 h [1, 3] [µmol/L] | Uric acid 5 h [1, 3] [µmol/L] | Uric acid 0 h [1, 3] [µmol/L] | Uric acid 1 h [1, 4] [µmol/L] | Uric acid 3 h [1, 4] [µmol/L] | Uric acid 5 h [1, 4] [µmol/L] | Uric acid 0 h [1, 4] [µmol/L] | Uric acid 1 h [1, 5] [µmol/L] | Uric acid 3 h [1, 5] [µmol/L] | Uric acid 5 h [1, 5] [µmol/L] | Uric acid 0 h [1, 5] [µmol/L] | further results
11.8 | CCCn1nc(C#N)c2cc(-n3cc(C(=O)O)cn3)ccc21 [Compound 35, 1-(3-cyano-1-propyl-1H-indazole-5-yl)-1H-pyrazole-4-formic acid] |  |  |  |  |  |  |  |  |  |  |  |  |  |  |  |  | 
3.65 | CC(C)n1nc(C#N)c2cc(-n3ncc(C(=O)O)n3)ccc21 [Compound 24, 2-(3-cyano-1-isopropyl-1H-indazole-5-yl)-2H-1,2,3-triazole-4-formic acid] | 96.2 ± 9.3 | 131.0 ± 18.9 | 96.8 ± 13.6 | 65.3 ± 5.8 | 96.8 ± 5.4 | 126.4 ± 14.4 | 105.1 ± 16.6 | 77.6 ± 9.2 | 105.5 ± 12.7 | 155.3 ± 38.2 | 102.6 ± 8.3 | 87.8 ± 16.2 | 97.2 ± 27.5 | 104.0 ± 5.8 | 97.0 ± 14.6 | 90.4 ± 9.1 | Serum uric acid level compared with model group ([1]; 1-day administration, 1 and 2 mg/kg groups, at 1 h after model establishment, P<0.01): significantly decreased; Serum uric acid level compared with model group ([1]; 3-day administration, 2 mg/kg group, at 3 h after model establishment, P<0.01): significantly decreased
9.58 | N#Cc1cn(C2CCOC2)c2ccc(-n3ncc(C(=O)O)n3)cc12 (stereo not drawn) [Compound 44, 2-[3-cyano-1-(tetrahydrofuran-3-yl)-1H-indole-5-yl]-2H-1,2,3-triazole-4-formic acid] |  |  |  |  |  |  |  |  |  |  |  |  |  |  |  |  | 
1.84 | CC(C)n1cc(C#N)c2cc(-n3ncc(C(=O)O)n3)ccc21 [Compound 15, 2-(3-cyano-1-isopropyl-1H-indole-5-yl)-2H-1,2,3-triazole-4-formic acid] | 104.3 ± 20.3 | 121.6 ± 12.2 | 118.4 ± 15.3 | 72.0 ± 6.7 | 98.1 ± 6.3 | 130.7 ± 11.5 | 109.7 ± 22.5 | 74.1 ± 10.3 | 78.4 ± 12.1 | 166.1 ± 37.5 | 100.0 ± 12.5 | 70.9 ± 12.8 | 88.2 ± 21.3 | 139.8 ± 32.7 | 97.6 ± 21.0 | 64.1 ± 4.8 | Serum uric acid level compared with model group ([1]; 1-day administration, 2 mg/kg group, at 1 h after model establishment, P<0.01): significantly decreased
9.89 | N#Cc1nn(C2CC2)c2ccc(-n3cc(C(=O)O)cn3)cc12 [Compound 50, 1-(3-cyano-1-cyclopropyl-1H-indazole-5-yl)-1H-pyrazole-4-formic acid] |  |  |  |  |  |  |  |  |  |  |  |  |  |  |  |  | 
1.72 | N#Cc1cn(CC2CC2)c2ccc(-n3ncc(C(=O)O)n3)cc12 [Compound 41, 2-(3-cyano-1-cyclopropylmethyl-1H-indole-5-yl)-2H-1,2,3-triazole-4-formic acid] |  |  |  |  |  |  |  |  |  |  |  |  |  |  |  |  | 
1.71 | N#Cc1cn(C2CCC2)c2ccc(-n3ncc(C(=O)O)n3)cc12 [Compound 47, 2-(3-cyano-1-cyclobutyl-1H-indole-5-yl)-2H-1,2,3-triazole-4-formic acid] |  |  |  |  |  |  |  |  |  |  |  |  |  |  |  |  | 

Continued, compound first:

SMILES | IC50 (Xanthine Oxidase (XO)) [nM] | Uric acid 1 h [1, 2] [µmol/L] | Uric acid 3 h [1, 2] [µmol/L] | Uric acid 5 h [1, 2] [µmol/L] | Uric acid 0 h [1, 2] [µmol/L] | Uric acid 1 h [1, 3] [µmol/L] | Uric acid 3 h [1, 3] [µmol/L] | Uric acid 5 h [1, 3] [µmol/L] | Uric acid 0 h [1, 3] [µmol/L] | Uric acid 1 h [1, 4] [µmol/L] | Uric acid 3 h [1, 4] [µmol/L] | Uric acid 5 h [1, 4] [µmol/L] | Uric acid 0 h [1, 4] [µmol/L] | Uric acid 1 h [1, 5] [µmol/L] | Uric acid 3 h [1, 5] [µmol/L] | Uric acid 5 h [1, 5] [µmol/L] | Uric acid 0 h [1, 5] [µmol/L] | further results
CC(C)Cn1nc(C#N)c2cc(-n3cc(C(=O)O)cn3)ccc21 [Compound 32, 1-(3-cyano-1-isobutyl-1H-indazole-5-yl)-1H-pyrazole-4-formic acid] | 5.11 |  |  |  |  |  |  |  |  |  |  |  |  |  |  |  |  | 
CC(C)n1nc(C#N)c2cc(-n3cc(C(=O)O)cn3)ccc21 [Compound 38, 1-(3-cyano-1-isopropyl-1H-indazole-5-yl)-1H-pyrazole-4-formic acid] | 3.24 | 70.6 ± 7.7 | 74.6 ± 19.6 | 64.3 ± 10.6 | 75.6 ± 6.8 | 66.5 ± 7.5 | 77.4 ± 9.2 | 56.8 ± 4.0 | 73.1 ± 6.7 | 62.1 ± 14.1 | 69.4 ± 16.1 | 55.1 ± 5.8 | 61.0 ± 5.7 | 54.4 ± 5.1 | 73.1 ± 9.4 | 58.1 ± 9.6 | 60.9 ± 8.1 | Serum uric acid level compared with model group [1, 6]: significantly decreased; Serum uric acid level compared with model group [1, 7]: significantly decreased
CC(C)n1nc(C#N)c2cc(-c3ccc(C(=O)O)s3)ccc21 [Compound 28, 2-(3-cyano-1-isopropyl-1H-indazole-5-yl)thiophen-2-formic acid] | 7.91 |  |  |  |  |  |  |  |  |  |  |  |  |  |  |  |  | 
Cc1nc(-c2ccc(OCC(C)C)c(C#N)c2)sc1C(=O)O [Febuxostat, reference compound] |  | 76.4 ± 11.4 | 91.3 ± 13.3 | 65.7 ± 12.4 | 81.3 ± 7.8 | 59.7 ± 6.6 | 60.7 ± 15.0 |  | 67.2 ± 1.9 | 53.0 ± 12.0 | 71.4 ± 23.5 | 61.1 ± 8.1 | 66.0 ± 11.3 | 47.5 ± 7.9 | 51.8 ± 6.7 |  | 65.5 ± 8.8 | Serum uric acid level compared with model group [1, 6]: significantly decreased; Serum uric acid level compared with model group [1, 7]: significantly decreased; All-cause mortality, HR (patients with gout; febuxostat vs allopurinol group, 95% CI 1.01-1.47): 1.22; Cardiovascular mortality, HR (patients with gout; febuxostat vs allopurinol group, 95% CI 1.03-1.73): 1.34; Overall risk of adverse cardiovascular events, HR (patients with gout; febuxostat vs allopurinol group, average of 32 months of treatment, 95% CI 0.87-1.23): 1.03; Sudden cardiac death, share of group (patients with gout; patients with gout, per treatment group): 2.7%
CC(C)n1nc(C#N)c2cc(-c3cc(C(=O)O)ccn3)ccc21 [Compound 57, 2-(3-cyano-1-isopropyl-1H-indazole-5-yl) isonicotinic acid] | 2.89 | 74.7 ± 11.3 | 99.5 ± 12.4 | 85.7 ± 8.5 | 71.2 ± 8.3 | 64.0 ± 13.5 | 107.4 ± 12.5 | 94.8 ± 6.4 | 74.5 ± 8.9 | 57.5 ± 9.3 | 75.3 ± 6.3 | 90.0 ± 5.9 | 70.8 ± 8.6 | 63.6 ± 11.7 | 75.2 ± 16.9 | 81.1 ± 8.0 | 72.7 ± 15.6 | Serum uric acid level compared with model group [1, 6]: significantly decreased; Serum uric acid level compared with model group ([1]; 3-day administration, 1 and 2 mg/kg groups, at 1 and 3 h after model establishment, P<0.01): significantly decreased
